“Also recorded” adds a separate entry of the source.
Columns and labels:
isolated rat aorta [1] = experiment: In vitro vasorelaxation of rat aortic rings contracted with epinephrine; format: cell-based; conditions: isolated rat aorta pre-treated in vitro with 1 μM epinephrine; figure legends
Text: Male Sprague Dawley rats were anaesthetized using intraperitoneal injection of ketamine and xylazine (50 and 10 milligram per kilogram, respectively) and the thoracic aorta, the large upper portion of the descending aorta, starting at the caudal border of the chest bone, was removed thereafter, while carefully removing the paraadventetial tissue surrounding the vessel. Aortae were cut into rings of 4-5 millimeters and mounted onto the tissue path. The path buffer (Krebs-bicrbonate) was constantly gassed with carbogen and maintained at 37° C. The rings were preloaded under 2 g tension and equilibrated for 90 minutes, while refreshing the buffer every 15 minutes. After stabilization, the rings were contracted with epinephrine (1 μM). Cumulative Concentration-Response Curves (CCRC) were measured for the vasorelaxing effect induced by adding various concentrations, ranging from 10^−10 M to 10^−5 M of Pet-2, Pet-3, Pet-7, Pet-8, Pet-12, Pet-24, Pet-43, Pet-59, Pet-147, Pet-152 and Pet-154, and glyceryltrinitrate (GTN), according to the procedure described in Feelich et al., Molecular Pharmacology, 56:243-253 (1999). The vehicle, which was used for this experiment was water:ethanol:propyleneglycol at proportional ratio of 1:1:1.

[2] = test system: c-GMP in aortic rat tissue; experiment: Cyclic-GMP measurement in aortic rat tissue (radioimmunoassay); format: cell-based; conditions: for levels of cGMP as compared with GTN: isolated rat aorta, FIGS. 25, 27, 33
Procedure: GTN (10^−6 M) was added to the chamber and, 1 minute after exposure to the drug, rings (usually 3-5) were taken, wrapped with aluminum foil and immediately frozen in liquid nitrogen for storage. Control sample group was treated with the vehicle solution only. At the time of analysis, rings were thawed, blotted over a dry gauzed and weighted. A known weight of tissue was homogenized in 2 ml ice-cold modified Hank's balanced salt solution containing (in gram/liter) NaCl 8; KCl 0.4; glucose 1; KH2PO4 0.06; Na2HPO4 0.047; Phenol red 0.017 and further containing 25 mM EDTA (disodium salt). The homogenate was centrifuged at 4000 g (force units) for 10 minutes at 2-4° C. and the supernatant was thereafter transferred into fresh pre-cooled test tube containing 1 ml of acetonitrile. The tubes were vortex mixed for a few seconds and subsequently centrifuged at 4000 g for 5 minutes at 2-4° C., to remove the precipitated protein. Each supematant was transferred into a clean test tube and evaporated to dryness under a stream of nitrogen at 55° C. The dry residue was reconstituted with 10 volumes of Tris-EDTA buffer pH 7.5 (0.05 M Tris containing 4 mM EDTA). Aliquots of 100 μl of the reconstituted solution in duplicate were used for c-GMP measurements using Amersham RIA kit, as is described in Haj-Yehia & Benet [Pharmacology, 1995, 273, 1, pp. 94-100]. Standard curves were plotted with six concentrations (0, 0.5, 1, 2, 4 and 8 pmoles of c-GMP per tube).

[3] = test system: cGMP in isolated aorta of rats pre-treated in vivo; experiment: Induction of in vivo nitrate tolerance (cGMP in aorta after 16 hour infusion); design: species or system rat; conditions: for tolerance induction in vivo: cGMP accumulation in aorta of rats pre-treated in vivo, FIGS. 24, 26
Procedure: For c-GMP levels and tolerance development, the rat's thoracic aorta was isolated after exposure to the tested compound in vivo, and measured as described above in the in vitro assays.
Male Sprague Dawley rats (220 to 250 grams) were housed under constant temperature and humidity conditions. Light was maintained at a 12/12 light dark cycle. Except for 12 hours before the experiment, when food fasting was initiated, all rats had free access to standard rat pellet diet and tap water. The animals were anesthetized by intraperitoneal injection of ketamine and xylazine combination (50 and 10 milligram per kilogram, respectively). […] The catheters were filled with normal saline solution containing 1000 IU/ml of heparin and plugged with a metal pin. Catheters were externalized to the back of the neck region and secured by a polyester felt disk.
After implantation, the rats were individually housed until they regained their preoperative weight and appeared healthy (3 to 4 days post-operation). At this time point (day 0), an osmotic mini-pump (Alza Corp., Palo Alto, Calif.) delivering constant volume (10 μl/hour) of vehicle or drug was connected to one of the intravenous catheters.
For inducing tolerance to the tested NO-donor according to the present invention, the animals received 200 μg/hour of the tested compound for 16 hours (short-term-induced tolerance). A similar number of animals were processed by the same surgical procedure and received the vehicle alone (10 μl/hour of a solution consisting of 30% ethanol and 30% propylene glycol in sterile distilled water for injection).
At the end of the infusion periods used for the development of tolerance (16 hour), the rats were anesthetized as described above, the two catheters were externalized and the delivering catheters were disconnected from the mini-pump. The abdomen was opened by midline incision and the thoracic aorta were isolated, washed and cleaned from the surrounding tissues. […]

isolated rat aorta [4] = experiment: In vitro induction of tolerance to NO releasing compounds (vasorelaxation after pre-exposure); format: cell-based; conditions: rat aorta pre-treated with epinephrine and then with the compound (0.44 mM) versus control
Procedure: Aortic rings were prepared as described hereinabove, and were exposed to 0.44 mM GTN (vehicle was water:ethanol:propyleneglycol at proportional ratio of 1:1:1) for 1 hour before CCRC construction, to thereby induce tolerance to nitroglycerine. At the end of the tolerance induction period, rings were thrice washed with the path buffer (Krebs-bicrbonate) every 15 minutes for the following hour and then CCRC for vasorelaxation on GTN-induced tolerance rings were constructed for GTN (pretreated versus untreated rings, FIG. 15), in order to verify the ability to induce and measure GTN tolerance induction in vitro
Attempted induction of tolerance to the NO-donating compounds of the present invention was performed under the same conditions as for GTN. Thus, in an exemplary experiment, rings were exposed to 0.44 mM solution of Pet-3 in the attempt to induce tolerance for Pet-3. CCRC were then measured for the vasorelaxing effect of Pet-3 on a group of rings which were pre-exposed to Pet-3 as to induce tolerance to Pet-3, and for an untreated control group. The above protocol was repeated with Pet-2, Pet-7, Pet-8, Pet-12, Pet-24, Pet-43, Pet-149 and Pet-152.

[5] = test system: mean arterial blood pressure of rats; experiment: Hypotensive effects: mean arterial pressure after iv bolus; format: in vivo, rat; conditions: anesthetized rats, phenylephrine, iv bolus doses
Procedure: Mean arterial pressure (MAP) was monitored and determined during bolus infusion of Pet-2, Pet-3, Pet-7, Pet-8, Pet-12 and Pet-13. Briefly, polyethylene catheters (PE50) were inserted into the carotid artery and into the jugular vein of anesthetized hypertensive Sprague-Dawley male rats (200-300 grams). A blood pressure recorder was placed within the carotid artery. Phenylephrine (0.1 mg) was then injected and the mean arterial blood pressure (MABP) was monitored continuously until a stable baseline was reached. The hypotensive effects of intravenous (iv) bolus doses (0.1 mg of each tested compound) administered intravenously at the jugular vein in minimal volume of vehicle (0.2 ml per dose) were evaluated. Five minutes were allowed between each dose, during which the maximal decrease in MAP was recorded and a dose-response graph comparing the hypotensive effect of the compounds was constructed.

isolated rat aorta [6] = experiment: Cross-tolerance study GTN / Pet-12 on aortic rings; format: cell-based
Procedure: Cross-tolerance studies were conducted using the same technique described above for measuring vasorelaxation of aortic rings from rats. Two groups of aortic rings samples were pre-treated with GTN, then one group was measured for vasorelaxation by GTN and the second group for vasorelaxation by Pet-12, an exemplary NO-donor according to the present invention. For the opposite cross-tolerance studies, two groups of aortic rings samples were pre-treated with Pet-12, then one group was measured for vasorelaxation by GTN and the second group for vasorelaxation by Pet-12.

For `Cc1nc(NC(=O)[C@@H](C)c2ccc(CC(C)C)cc2)sc1CCO[N+](=O)[O-]` (stereo in doubt) [Pet-152, 2-(4-Isobutyl-phenyl)-N-[4-methyl-5-(2-nitrooxy-ethyl)-thiazol-2-yl]-propionamide], the “vasorelaxation effect as compared with glyceryltrinitrate” value (isolated rat aorta [1]) was “superior” and the “levels of cGMP as compared with GTN” value [2] was “increased levels of cGMP”.
With `O=[N+]([O-])OCC(CO[N+](=O)[O-])O[N+](=O)[O-]` [GTN, glyceryl trinitrate, reference compound] the “level of cGMP following a repeated treatment in vivo” value ([3]; aorta of rats infused in vivo, FIG. 24) was “decreased”, the “tolerance induction in vivo” value [3] was “tolerance inducing effect” and the “tolerance induction in vitro” value (isolated rat aorta [4]) was “tolerance induced”. For the same compound, the “hypotensive effect on MAP following successive administrations” value (“hypotensive effect” for short) [5] was “attenuation” and the “c-GMP level following a repeated treatment” value ([2]; rat aorta) was “significantly reduced”.
For `Cc1nc(C)c(CCO[N+](=O)[O-])s1` [Pet-3, 2,4-Dimethyl-5-(2-nitrooxy-ethyl)-thiazole], the “vasorelaxation effect as compared with glyceryltrinitrate” value (isolated rat aorta [1]) was “superior”, the “tolerance induction in vitro” value (isolated rat aorta [4]) was “absence of tolerance induction” and the “hypotensive effect” value [5] was “consistent and reproducible”. The “levels of cGMP as compared with GTN” value [2] was “increased levels of cGMP”.
In the case of `Cc1nc(N(C)C)sc1CCO[N+](=O)[O-]` [Pet-7, Dimethyl-[4-methyl-5-(2-nitrooxy-ethyl)-thiazol-2-yl]-amine], the “tolerance induction in vitro” value (isolated rat aorta [4]) is reported as “absence of tolerance induction”, the “hypotensive effect” value [5] is reported as “consistent and reproducible” and the “levels of cGMP as compared with GTN” value [2] is reported as “increased levels of cGMP”.
In the case of `Cc1nc(-c2ccccc2)sc1CCO[N+](=O)[O-]` [Pet-8, 4-Methyl-5-(2-nitrooxy-ethyl)-2-phenyl-thiazole], the “vasorelaxation effect as compared with glyceryltrinitrate” value (isolated rat aorta [1]) is reported as “superior”, the “hypotensive effect” value [5] is reported as “consistent and reproducible” and the “levels of cGMP as compared with GTN” value [2] is reported as “increased levels of cGMP”.
In the case of `Cc1nc(N)sc1CCO[N+](=O)[O-]` [Pet-10, 4-methyl-5-(2-nitrooxy-ethyl)-thiazole-2-ylamine], the “levels of cGMP as compared with GTN” value [2] is reported as “increased levels of cGMP”.
In the case of `Cc1nc(-c2cccnc2)sc1CCO[N+](=O)[O-]` [Pet-12, 3-[4-Methyl-5-(2-nitrooxy-ethyl)-thiazole-2-yl]-pyridine], the “effect of induced tolerance to GTN on vasorelaxation capacity” value (isolated rat aorta [6]; rings pre-treated with GTN) is reported as “no effect”, the “tolerance evoked by pre-treatment with Pet-12” value (isolated rat aorta [6]; rings pre-treated with Pet-12, vasorelaxation by GTN or Pet-12) is reported as “does not evoke tolerance to itself not to GTN” and the “tolerance induction in vivo” value [3] is reported as “absence of tolerance induction; also recorded: lack of tolerance induction”. For the same compound, the “tolerance induction in vitro” value (isolated rat aorta [4]) was “absence of tolerance induction” and the “hypotensive effect” value [5] was “consistent and reproducible”.
In the case of `Cc1nc(CCCCc2nc(C)c(CCO[N+](=O)[O-])s2)sc1CCO[N+](=O)[O-]` [Pet-13], the “hypotensive effect” value [5] is reported as “consistent and reproducible”.
With `CNc1cncc(-c2nc(C)c(CCO[N+](=O)[O-])s2)n1` [Pet-24, Methyl-{6-[4-methyl-5-(2-nitrooxy-ethyl)-thiazol-2-yl]-pyrazin-2-yl}-amine] the “tolerance induction in vitro” value (isolated rat aorta [4]) was “absence of tolerance induction” and the “levels of cGMP as compared with GTN” value [2] was “increased levels of cGMP”.
With `Cc1nc(Nc2nc(C)c(CCO[N+](=O)[O-])s2)sc1CCO[N+](=O)[O-]` [Pet-43, Bis-[4-methyl-5-(2-nitrooxy-ethyl)-thiazol-2-yl]-amine] the “vasorelaxation effect as compared with glyceryltrinitrate” value (isolated rat aorta [1]) was “superior” and the “tolerance induction in vitro” value (isolated rat aorta [4]) was “absence of tolerance induction”.
`Cc1nc(-c2ccc(C(F)(F)F)cc2)sc1CCO[N+](=O)[O-]` [Pet-59, 4-Methyl-5-(2-nitrooxy-ethyl)-2-(4-trifluoromethyl-phenyl)-thiazole] was tested, and the “vasorelaxation effect as compared with glyceryltrinitrate” value (isolated rat aorta [1]) was “superior” and the “levels of cGMP as compared with GTN” value [2] was “increased levels of cGMP”.
For `CCNc1nc(C)c(CCO[N+](=O)[O-])s1` [Pet-147, Ethyl-[4-methyl-5-(2-nitrooxy-ethyl)-thiazol-2-yl]-amine], the “levels of cGMP as compared with GTN” value [2] was “increased levels of cGMP”.
In the case of `Cc1nc(Nc2cccc3ccccc23)sc1CCO[N+](=O)[O-]` [Pet-149, [4-Methyl-5-(2-nitrooxy-ethyl)-thiazol-2-yl]-naphthalen-1-yl-amine], the “vasorelaxation effect as compared with glyceryltrinitrate” value (isolated rat aorta [1]) is reported as “superior”, the “tolerance induction in vitro” value (isolated rat aorta [4]) is reported as “absence of tolerance induction” and the “levels of cGMP as compared with GTN” value [2] is reported as “increased levels of cGMP”.
For `Cc1nc(NC(=O)c2cccnc2)sc1CCO[N+](=O)[O-]` [Pet-154, N-[4-methyl-5-(2-nitrooxy-ethyl)-thiazol-2-yl]-nicotinamide], the “levels of cGMP as compared with GTN” value [2] was “increased levels of cGMP”.
With `C=CCNc1nc(C)c(CCO[N+](=O)[O-])s1` [Pet-155, allyl-[4-methyl-5-(2-nitrooxy-ethyl)-thiazol-2-yl]-amine] the “vasorelaxation effect as compared with glyceryltrinitrate” value (isolated rat aorta [1]) was “superior” and the “levels of cGMP as compared with GTN” value [2] was “increased levels of cGMP”.
